Assay in all cases: NCI anticancer screen, dose series, 48 h
Assay [1] relates to KM20L2 colon.
The subject of assay [2] is SN12K1 renal.
Assay [3] concerns XF 498 CNS.
Assay [4] relates to M14 melanoma.
Assay [5] has as its system ACHN renal.
Assay [6] deals with BT-549 breast.
Assay [7] has as its system MDA-N.
Assay [8] relates to PC-3 prostate.
For assay [9], the system named is MDA-MB-231 breast.

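Cultured in 96-well plates, cells were exposed to test compound for 48 hours across five concentrations. GI50 is the concentration that inhibits growth by half. TGI is the concentration that stops growth completely.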

Take `Cc1c2cc[n+](Cc3ccc(I)cc3)cc2c(C)c2c1[nH]c1ccccc12`: the TGI is > 15.4 µM in assay [1], 5.92 µM in assay [2] and 1.17 µM in assay [3].
As for `N#C[S-].[La+3].c1ccc(-c2ccccn2)nc1.c1ccc(-c2ccccn2)nc1.c1ccc(-c2ccccn2)nc1`, in assay [4], the GI50 is 12.1 µM and the TGI amounted to 27.9 µM.
In the case of `O=c1cc(-c2cccc(OC(F)(F)F)c2)[nH]c2ccc(N3CCCC3)cc12`, the figures for the TGI in [5] and in [4] were 51.3 µM and > 100 µM, respectively.
Turning to `[CH3][Sn]([CH3])([CH3])[S]C(=S)N1CCOCC1`, the GI50 in [1] is 0.789 µM; in assay [2] it was 1.12 µM; in [3] it was 0.643 µM. The TGI came out at 8.2 µM in assay [1], 12.1 µM in [2] and 5.97 µM in [3].
Take `CCCCCCCCCCCC1N=C(N)N=C(N)N1c1cccc(Br)c1` (centres undefined): in assay [5], the GI50 was 2.52 µM and the TGI worked out at 7.05 µM.
Turning to `CC1OC(OC2C(O)CC(OC3C(O)CC(OC4CCC5(C)C(CCC6C5CCC5(C)C(C7=CC(=O)OC7)C(O)CC65O)C4)OC3C)OC2C)CC(O)C1O` (centres undefined), the TGI stood at 0.339 µM in assay [6]; 0.473 µM in [5]; 1.11 µM in [7]; 1.59 µM in assay [8]; 1.99 µM in [4].
In the case of `O=C(Nc1cccc(-n2ccc3c(NC(=O)c4ccccc4)ncnc32)c1)Nc1ccc(Cl)c(C(F)(F)F)c1`, the GI50 in assay [5] was 1.59 µM; in [9], 2.06 µM; in [8], 1.25 µM; in [4], 1.75 µM. Also, the TGI stood at 7.38 µM in assay [5], 7.94 µM in assay [9], 5.93 µM in assay [8] and 5.98 µM in assay [4].
As for `Brc1ccc2[nH]c3c(C4=NCCC4)nccc3c2c1`, the TGI in [1] was 23.3 µM; in [2], > 25.7 µM; in assay [3], > 72.2 µM.
The corresponding values for `Oc1c(Br)cc2c(c1Br)-c1c(c(O)c3c4c1=NCCC=4C=N3)NCC2` are 18.7 µM, 17.4 µM and 27.2 µM.

The record behind these values is PubChem BioAssay (NCI).
